Measured values reported in US12448371B2, “Inhibitor compounds” (Cincera Therapeutics Pty Ltd, priority 2019, dated 2025).
pIC50: −log10 of the molar value. Counter-ions that a name gives are not always drawn.

Biological target: T1, Des1 (h) (Homo sapiens, UniProt O15121)
T1 construct: endogenous in cells; host or cells: parental Jurkat cells
T1 sequence (O15121 1-323): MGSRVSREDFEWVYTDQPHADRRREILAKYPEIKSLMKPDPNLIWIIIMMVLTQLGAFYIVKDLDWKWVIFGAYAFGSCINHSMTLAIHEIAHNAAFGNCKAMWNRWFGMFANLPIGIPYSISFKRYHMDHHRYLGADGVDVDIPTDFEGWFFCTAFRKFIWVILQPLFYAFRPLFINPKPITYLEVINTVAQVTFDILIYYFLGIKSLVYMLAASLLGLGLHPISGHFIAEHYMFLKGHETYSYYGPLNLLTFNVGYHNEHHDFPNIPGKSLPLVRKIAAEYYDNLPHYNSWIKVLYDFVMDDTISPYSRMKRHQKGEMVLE
Test: Measurement of Dihydroceramide Desaturase-1 (Des-1) activity in intact Jurkat cells labeled with DhCer-C6-NBD (HPLC)
Type: cell-based
Conditions: for inhibition at 1 µM / % inhibition of Des1 at 0.1 μM / % inhibition of Des1 at 10 μM: Jurkat cells; for pIC50: intact Jurkat cells, given as concentration range, or <X / >X if measured at one concentration X only, read-out: Des1 (h) Jurkat IC50
Method: Measurement of Dihydroceramide Desaturase-1 (Des-1) Activity
Compounds were assessed for Des-1 inhibitory activity. Measurement of Des1 activity was performed by HPLC using intact Jurkat cells labeled with DhCer-C6-NBD as described previously (Munoz-Olaya, J. M. et al. ChemMedChem 2008, 3, 946-953) with modifications to enhance sensitivity and reproducibility. These modifications included the use of parental Jurkat cells, 0.5% serum in the culture media, and cell harvesting via centrifugation at 500×g to maximise ceramide extraction. Extracted samples (50 ul) were analysed on a Waters HPLC coupled to a fluorescence detector using a 30 cm C18 reverse-phase column eluted with 1 ml/min 20% H2O and 80% acetonitrile, both with a 0.1% of trifluoroacetic acid. NBD-labelled substrate and product were quantitated with an excitation and emission wavelengths of 465 nm and 530 nm, respectively.

| Compound | pIC50 | other results |
| --- | --- | --- |
| N=C(NCC(O)CO)c1ccc(Nc2ncc(-c3ccc(C(F)(F)F)cc3)o2)cn1 (racemic) [Compound 91, rac-N-(2,3-dihydroxypropyl)-5-((5-(4-(trifluoromethyl)phenyl)oxazol-2-yl)amino)picolinimidamide] | < 6.00 | inhibition at 1 µM: 44% |
| O=C(NCC(O)CO)c1ccc(Nc2cnn(-c3ccc(C(F)(F)F)cn3)c2)cn1 (racemic) [Compound 104, rac-N-(2,3-Dihydroxypropyl)-5-((1-(5-(trifluoromethyl)pyridin-2-yl)-1H-pyrazol-4-yl)amino)picolinamide] | < 6.00 | inhibition at 1 µM: 26% |
| O=S(=O)(NCC(O)CO)c1ccc(Nc2ncc(-c3ccc(C(F)(F)F)cc3)o2)cn1 (racemic) [Example 16, rac-N-(2,3-Dihydroxypropyl)-5-((5-[4-(trifluoromethyl)phenyl]-1,3-oxazol-2-yl)amino)pyridine-2-sulfonamide] | < 6.00 | inhibition at 1 µM: 42% |
| CNNC(=O)c1ccc(Nc2ncc(-c3ccc(C(F)(F)F)cc3)o2)cn1 [Compound 94, N′-Methyl-5-((5-(4-(trifluoromethyl)phenyl)oxazol-2-yl)amino)picolinohydrazide] | < 6.00 | inhibition at 1 µM: 30% |
| O=C(NC[C@@H](O)CO)c1ccc(Nc2ncc(-c3ccc(F)c(F)c3)o2)cn1 [Compound 97, (R)-5-((5-(3,4-Difluorophenyl)oxazol-2-yl)amino)-N-(2,3-dihydroxypropyl)picolinamide] |  | % inhibition of Des1 at 0.1 μM: 55% |
| O=C(NC[C@@H](O)CO)c1ccc(Nc2ncc(-c3ccc(F)cc3)o2)cn1 [Compound 98, (R)—N-(2,3-dihydroxypropyl)-5-((5-(4-fluorophenyl)oxazol-2-yl)amino)picolinamide] |  | % inhibition of Des1 at 0.1 μM: 70% |
| Cn1nc(Nc2cnc(/C(N)=N/O)cn2)cc1-c1ccc(C(F)(F)F)cn1 [Compound 110, N′-Hydroxy-5-((1-methyl-5-(5-(trifluoromethyl)pyridin-2-yl)-1H-pyrazol-3-yl)amino)pyrazine-2-carboximidamide] | < 6.00 | inhibition at 1 µM: 31% |
| N/C(=N/O)c1ccc(Nc2ncc(-c3ccc(F)cn3)o2)cn1 [Compound 117, 5-((5-(5-Fluoropyridin-2-yl)oxazol-2-yl)amino)-N′-hydroxypicolinimidamide] | < 6.00 | inhibition at 1 µM: 36% |
| N/C(=N\O)c1ccc(Nc2ncc(-c3ccc(C(F)(F)F)nn3)o2)cn1 [Compound 119, N′-Hydroxy-5-((5-(6-(trifluoromethyl)pyridazin-3-yl)oxazol-2-yl)amino)picolinimidamide] | < 6.00 | inhibition at 1 µM: 44% |
| ONc1ccc(Nc2ncc(-c3ccc(C(F)(F)F)cc3)o2)cn1 [Example 4, N-(6-(Hydroxyamino)pyridin-3-yl)-5-(4-(trifluoromethyl)phenyl)oxazol-2-amine] | 5.00 to 6.00 |  |
| N=C(NO)c1ccc(Nc2nnc(-c3ccc(C(F)(F)F)cc3)o2)cn1 [Example 5, 5-((5-[4-(Trifluoromethyl)phenyl]-1,3,4-oxadiazol-2-yl)amino)-N-hydroxy-pyridine-2-carboximidamide] | 6.00 to 7.00 |  |
| N=C(NO)c1ccc(Nc2nnc(-c3ccc(C(F)(F)F)c(F)c3)o2)cn1 [Example 6, 5-((5-[3-Fluoro-4-(trifluoromethyl)phenyl]-1,3,4-oxadiazol-2-yl)amino)-N-hydroxypyridine-2-carboximidamide] | 6.00 to 7.00 |  |
| O=C(NO)c1ncc(Nc2nc(-c3ccc(Cl)cc3)cs2)cn1 [Example 9, 5-([4-(4-Chlorophenyl)-1,3-thiazol-2-yl]amino)-N-hydroxypyrimidine-2-carboxamide] | < 5.00 | % inhibition of Des1 at 10 μM: 26% |
| O=C(NO)c1ncc(Nc2ncc(-c3ccc(C(F)(F)F)cc3)o2)cn1 [Example 10] | 5.00 to 6.00 |  |
| O=C(NO)c1ccc(Nc2ncc(-c3ccc(C(F)(F)F)cc3)o2)nn1 [Example 11, N-Hydroxy-6-((5-[4-(trifluoromethyl)phenyl]-1,3-oxazol-2-yl)amino)pyridazine-3-carboxamide] | 6.00 to 7.00 |  |
| O=C(NO)c1ncc(Nc2nc(-c3ccc(C(F)(F)F)cc3)co2)cn1 [Example 12, N-Hydroxy-5-((4-[4-(trifluoromethyl)phenyl]-1,3-oxazol-2-yl)amino)pyrimidine-2-carboxamide] | 5.00 to 6.00 |  |
| O=C(NO)c1ccc(Nc2nc(-c3ccc(C(F)(F)F)cc3)co2)nn1 [Example 13, N-Hydroxy-6-((4-(4-(trifluoromethyl)phenyl)oxazol-2-yl)amino)pyridazine-3-carboxamide] | 5.00 to 6.00 |  |
| O=C(NO)c1ccc(Nc2nc(-c3ccc(C(F)(F)F)cc3)co2)cn1 [Example 14, N-Hydroxy-5-((4-[4-(trifluoromethyl)phenyl]-1,3-oxazol-2-yl)amino)picolinamide] | 6.00 to 7.00 |  |
| CN(O)S(=O)(=O)c1ccc(Nc2ncc(-c3ccc(C(F)(F)F)cc3)o2)cn1 [Example 15, N-Hydroxy-N-methyl-5-((5-[4-(trifluoromethyl)phenyl]-1,3-oxazol-2-yl)amino) pyridine-2-sulfonamide] | < 6.00 | inhibition at 1 µM: 46% |
| O=C(NCCO)c1ccc(Nc2ncc(-c3ccc(C(F)(F)F)cc3)o2)cn1 [Example 19, N-(2-Hydroxyethyl)-5-((5-(4-(trifluoromethyl)phenyl)oxazol-2-yl)amino)picolinamide] | 5.00 to 6.00 |  |
| Cc1cc(Nc2ncc(-c3ccc(C(F)(F)F)cc3)o2)cnc1C(=O)N(C)O [Example 21, N-Hydroxy-N,3-dimethyl-5-((5-(4-(trifluoromethyl)phenyl)oxazol-2-yl)amino)picolinamide] | < 6.00 | inhibition at 1 µM: 38% |
| O=C(c1ccc(Nc2ncc(-c3ccc(C(F)(F)F)cc3)o2)cn1)N(O)CCO [Example 22, N-Hydroxy-N-(2-hydroxyethyl)-5-((5-(4-(trifluoromethyl)phenyl)oxazol-2-yl)amino)picolinamide] |  | % inhibition of Des1 at 10 μM: 81% |

Now from value to compound, other results behind:

| pIC50 | Compound | other results |
| --- | --- | --- |
| 8.00 to 9.00 | O=C(NCC(O)CO)c1ccc(Nc2ncc(-c3ccc(C(F)(F)F)cc3)o2)cn1 (racemic) [Example 17, rac-N-(2,3-Dihydroxypropyl)-5-((5-[4-(trifluoromethyl)phenyl]-1,3-oxazol-2-yl)amino) picolinamide] |  |
| 6.00 to 7.00 | NNC(=O)c1ccc(Nc2ncc(-c3ccc(C(F)(F)F)cc3)o2)cn1 [Compound 92, 5-((5-(4-(Trifluoromethyl)phenyl)oxazol-2-yl)amino)picolinohydrazide] |  |
| > 6.00 | O=CNNC(=O)c1ccc(Nc2ncc(-c3ccc(C(F)(F)F)cc3)o2)cn1 [Compound 93, N′-formyl-5-((5-(4-(trifluoromethyl)phenyl)oxazol-2-yl)amino)picolinohydrazide] |  |
| 7.00 to 8.00 | O=C(NC[C@@H](O)CO)c1ccc(Nc2ncc(-c3ccc(C(F)(F)F)cn3)o2)cn1 [Compound 95, (R)—N-(2,3-dihydroxypropyl)-5-((5-(5-(trifluoromethyl)pyridin-2-yl)oxazol-2-yl)amino)picolinamide] |  |
| > 6.00 | Cc1nc(Nc2ccc(C(=O)NC[C@@H](O)CO)nc2)oc1-c1ccc(C(F)(F)F)cc1 [Compound 96, (R)—N-(2,3-dihydroxypropyl)-5-((4-methyl-5-(4-(trifluoromethyl)phenyl)oxazol-2-yl)amino)picolinamide] |  |
| > 6.00 | N/C(=N\O)c1ccc(Nc2ncc(-c3ccc(Cl)cc3)o2)cn1 [Compound 100, 5-((5-(4-Chlorophenyl)oxazol-2-yl)amino)-N′-hydroxypicolinimidamide] |  |
| > 6.00 | N/C(=N\O)c1cnc(Nc2ncc(-c3ccc(Cl)cc3)o2)cn1 [Compound 101, 5-((5-(4-Chlorophenyl)oxazol-2-yl)amino)-N′-hydroxypyrazine-2-carboximidamide] |  |
| > 6.00 | Oc1ccc(Nc2ncc(-c3ccc(OC(F)(F)F)cc3)o2)nc1 [Compound 105, 6-((5-(4-(Trifluoromethoxy)phenyl)oxazol-2-yl)amino)pyridin-3-ol] |  |
| 6.00 to 7.00 | O=C(NO)c1ccc(Nc2ncc(-c3ccc(Cl)cc3)o2)cn1 [Example 1, 5-((5-(4-Chlorophenyl)oxazol-2-yl)amino)-N-hydroxypicolinamide] |  |
| 6.00 to 7.00 | O=C(NO)c1ccc(Nc2ncc(-c3ccc(C(F)(F)F)cc3)o2)cn1 [Example 2, N-Hydroxy-5-((5-(4-(trifluoromethyl)phenyl)oxazol-2-yl)amino)picolinamide] |  |
| 6.00 to 7.00 | N/C(=N\O)c1ccc(Nc2ncc(-c3ccc(C(F)(F)F)cc3)o2)nc1 [Example 3, N′-Hydroxy-6-((5-(4-(trifluoromethyl)phenyl)oxazol-2-yl)amino)nicotinimidamide hydrochloride] |  |
| > 6.00 | O=c1cc(Nc2nnc(-c3ccc(C(F)(F)F)cc3)o2)ccn1O [Example 7, 1-Hydroxy-4-((5-[4-(trifluoromethyl)phenyl]-1,3,4-oxadiazol-2-yl)amino)-1,2-dihydropyridin-2-one] |  |
| > 6.00 | Oc1ccc(Nc2ncc(-c3ccc(C(F)(F)F)cc3)o2)nc1 [Example 18, 6-((5-(4-(Trifluoromethyl)phenyl)oxazol-2-yl)amino)pyridin-3-ol] |  |
